Columns and labels:
[1] = system: TMPRSS2 mRNA (AR target gene) in C4-2 cells; assay: Inhibition of R1881 activation of TMPRSS2 mRNA in C4-2 cells; type: cell-based; settings: hormone depleted 96 h, R1881 1 nM, compound 1-10 μM, 48 h, FIG. 3B
Method: Cell Culture and Reagents. LNCaP and 22Rv1 cell lines were from American Type Culture Collection (Manassas, Va.). C4-2 cells were kindly provided by Dr. Edwin Sanchez (University of Toledo). […] R1881 was kindly provided by Dr. Stephan Patrick (Karmanos Cancer Institute). All experiments were conducted using phenol-red free growth media.
RNA isolation, Reverse Transcription, and Real Time PCR. Total RNA was isolated from cells using the RNeasy Mini Kit (Qiagen). Reverse transcription PCR was then performed using 500 ng of total RNA with random primers and using the high-capacity complementary DNA Archive kit (Applied Biosystems). The complementary DNA from this reaction was measured using quantitative real time PCR using the StepONE Plus Real Time PCR system (Life Technologies Corporation, Carlsbad, Calif.). All reactions were performed in triplicate and normalized to glyceraldehyde-3-phosphate-dehydrogenase values in the same samples.

[2] = system: HDACs from Hela cell nuclear extract; type: biochemical; settings: for IC50: cell-free, FIG. 2A, read-out: IC50, inhibition of HDACs enriched in the Hela nuclear extract
Method: (§1) FIGS. 2A-2F show measurement of intrinsic and in situ HDACi activities. […] IC50 values were calculated from nonlinear regression plots using GraphPad Prism5 software. […] Recombinant HDAC6 was incubated with each drug at the indicated concentrations. IC50 values were calculated from nonlinear regression plots using GraphPad Prism5 software.
(§2) HDAC activity assay. In vitro HDAC inhibition was measured by using the HDAC fluorimetric assay/drug discovery Kit (Enzo Life Sciences, BML-AK500) and the HDAC6 fluorometric drug discovery kit (Enzo Life Sciences, BML-AK516) following the manufacturer's protocols and instructions. IC50 values were calculated from nonlinear […] plots using GraphPad Prism5 software.
(§3) HDAC1 and HDAC2 are enriched in nuclear extracts whereas HDAC6 is a cytosolic enzyme that is the principal modulator of the acetylation status of Hsp90. […] Again, TSA served as the positive control in FIG. 2D.

human recombinant HDAC6 = biological target: T1, human recombinant HDAC6 (Homo sapiens, UniProt Q9UBN7); assay: HDAC6 fluorometric assay, recombinant enzyme; type: biochemical; settings: for IC50: cell-free, FIG. 2C, read-out: IC50, inhibition of recombinant HDAC6
T1 construct: purchased Enzo Life Sciences BML-AK516
T1 sequence (Q9UBN7 1-1215): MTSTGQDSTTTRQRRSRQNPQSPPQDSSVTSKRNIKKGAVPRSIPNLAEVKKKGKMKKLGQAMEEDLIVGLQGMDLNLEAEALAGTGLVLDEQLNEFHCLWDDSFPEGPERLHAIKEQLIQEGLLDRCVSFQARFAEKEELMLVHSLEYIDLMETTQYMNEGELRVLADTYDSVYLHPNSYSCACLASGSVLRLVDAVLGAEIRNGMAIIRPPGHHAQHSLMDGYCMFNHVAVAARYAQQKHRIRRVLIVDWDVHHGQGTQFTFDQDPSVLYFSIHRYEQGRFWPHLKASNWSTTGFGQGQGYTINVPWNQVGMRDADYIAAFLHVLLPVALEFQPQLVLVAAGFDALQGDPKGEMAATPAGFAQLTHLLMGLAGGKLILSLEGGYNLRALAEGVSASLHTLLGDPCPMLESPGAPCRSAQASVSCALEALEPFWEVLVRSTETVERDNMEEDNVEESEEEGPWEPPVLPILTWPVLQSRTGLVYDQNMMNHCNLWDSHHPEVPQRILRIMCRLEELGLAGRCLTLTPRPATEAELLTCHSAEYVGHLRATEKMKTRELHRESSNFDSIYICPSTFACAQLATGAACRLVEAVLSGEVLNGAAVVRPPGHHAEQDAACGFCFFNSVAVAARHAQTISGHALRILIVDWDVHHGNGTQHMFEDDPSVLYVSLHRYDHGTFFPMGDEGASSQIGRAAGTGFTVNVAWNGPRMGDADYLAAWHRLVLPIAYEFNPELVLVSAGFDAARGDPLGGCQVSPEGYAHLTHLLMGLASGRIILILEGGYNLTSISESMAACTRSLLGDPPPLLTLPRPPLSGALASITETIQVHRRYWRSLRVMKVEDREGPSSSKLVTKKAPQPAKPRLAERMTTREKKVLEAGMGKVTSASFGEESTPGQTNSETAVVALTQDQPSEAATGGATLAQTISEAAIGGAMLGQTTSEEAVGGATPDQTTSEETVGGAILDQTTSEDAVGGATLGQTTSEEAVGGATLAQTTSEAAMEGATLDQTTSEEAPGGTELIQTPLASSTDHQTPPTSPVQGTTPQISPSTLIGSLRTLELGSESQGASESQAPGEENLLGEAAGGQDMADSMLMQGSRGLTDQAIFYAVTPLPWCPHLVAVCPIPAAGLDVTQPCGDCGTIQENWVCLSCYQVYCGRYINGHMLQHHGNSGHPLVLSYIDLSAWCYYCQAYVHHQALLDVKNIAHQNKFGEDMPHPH
Method: as §1, §2, §3

[3] = system: 55 KDa polypeptide (putative Hsp90 fragment); assay: Western blot of acetylated lysine in C4-2 cells; settings: 24 h, acetylated lysine antibody, FIG. 4C
Method: Cells were then harvested for western blot analysis using antibody to AR (4A), HSP90 (4B), Acetyl-Lysine (4C) or GAPDH (loading control). ImageJ software was used to determine the intensities of the bands relative to the vehicle control for each protein. The values were then divided by the values for GAPDH within the same samples.
Western Blot Analysis. Cells were washed once with phosphate buffered saline (PBS) and then lysed with RIPA buffer (150 mM NaCl, 1% Nonidet P-40, 0.5% sodium deoxycholate, 0.1% SDS, 50 mM Tris of pH 8.0) containing a protease inhibitor cocktail (Pierce, Thermo Fisher Scientific). The cell lysates were then incubated on ice for 40 minutes. Total protein concentrations were estimated using the Bradford Assay (Bio-Rad). Protein samples (10-40 ug) were heated at 95° C. for 5 minutes and resolved by electrophoresis on 8% polyacrylamide-SDS gels and electrophoretically transferred to PVDF membranes (Millipore, Billerica, Mass.). The membranes were then probed overnight at 4° C. with the appropriate primary antibody followed by the appropriate horseradish peroxidase-conjugated secondary antibody.

| SMILES | inhibition of activation of TMPRSS2 by R1881 [1] | IC50 [2] [nM] | IC50 (human recombinant HDAC6) [nM] | hyper-acetylation of a 55 KDa polypeptide [3] | inhibition of nuclear HDAC activity ([2]; HeLa cell nuclear extract, tested at 10 μM and 25 μM, FIG. 2B) | inhibitory activity against HDAC6 (human recombinant HDAC6; tested at 10 μM and 25 μM, FIG. 2D) |
| --- | --- | --- | --- | --- | --- | --- |
| CC1(C)C(=O)N(c2ccc(C#N)c(C(F)(F)F)c2)C(=S)N1c1ccc(C(=O)NCCCCCCC(=O)NO)c(F)c1 [Compound 2-75, 4-(3-(4-cyano-3-(trifluoromethyl)phenyl)-5,5-dimethyl-4-oxo-2-thioxoimidazolidin-1-yl)-2-fluoro-N-(7-(hydroxyamino)-7-oxoheptyl)benzamide] | better inhibitors of gene activation by androgen compared with either Enz or SAHA | 1080 | 2000 | hyper-acetylation of a 55 KDa polypeptide |  |  |
| CC1(C)C(=O)N(c2ccc(C#N)c(C(F)(F)F)c2)C(=S)N1c1ccc(/C=C/C(=O)NO)c(F)c1 [Compound 1005, (E)-3-(4-(3-(4-cyano-3-(trifluoromethyl)phenyl)-5,5-dimethyl-4-oxo-2-thioxoimidazolidin-1-yl)-2-fluorophenyl)-N-hydroxyacrylamide] | better inhibitors of gene activation by androgen compared with either Enz or SAHA | 2410 | 6930 | hyper-acetylation of a 55 KDa polypeptide |  |  |
| CNC(=O)c1ccc(N2C(=S)N(c3ccc(C#N)c(C(F)(F)F)c3)C(=O)C2(C)C)cc1F [Enz, Enzalutamide, reference compound] | progressive inhibition at higher doses |  |  | not | lacked any HDACi activity | did not show significant inhibitory activity |
